In US12441693B2, “Targeting STAT sumoylation to enhance immune responses” (THE GEORGE WASHINGTON UNIVERSITY, priority 2018, dated 2025):
Entries after “also recorded” stand apart in the source; their conditions may differ.

What was measured:
[1] = system: STAT1, STAT2, STAT3, STAT4, STAT5A, STAT5B, STAT6; test: Western blot of STAT phosphorylation in 293FT HEK cells transfected with V5-tagged STATs; format: cell-based; conditions: 24 hours, vs DMSO
Experimental: (§1) In general, samples are prepared and loaded on to a gel and during the electrophoresis the negatively charged proteins move toward the positively charged anode. In order to further analyze the proteins, they are transferred onto a membrane in a procedure called blotting. After the transfer, the membrane is blocked in order to prevent unwanted membrane-protein interaction in the following steps. To visualize the protein of interest the membrane is commonly first probed using a primary protein-specific antibody followed by a labeled secondary antibody used for detection. An image is taken of the membrane and the result is analyzed.

[2] = system: STAT5; conditions: Bosque et al., Cell Rep. 2017; cited from earlier work
[3] = system: CD8 T cells; test: Expansion of polyclonally activated CD8 T cells with IL-2; format: cell-based, human; conditions: IL-2, vs DMSO/untreated
Experimental: For these tests, human CD4 and CD8 T cells were activated in vitro and expanded with interleukin-2 (IL-2) in the presence of DMSO (control vehicle) or HODHBt. […] Some immunotherapy strategies rely on the in vitro expansion of the own patient CD4 and CD8 T cells specific against a tumoral or a viral antigen.
(§2) To address whether SUMOylation controls STAT activation in human CD8 T cells, polyclonally activated CD8 T cells were cultured with IL-2 in the presence or absence of HODHBt and levels of phosphorylated STATs were measured by Western blot. […] Proliferation of CD8 T cells is dependent on the activation and phosphorylation of STAT5.

[4] = system: NK cells; test: In vitro expansion of NK cells with IL-2; format: cell-based, human; conditions: 500 IU/ml of IL-2, two HIV-negative donors
Text: As for CD8 T cells, STATS play an important role in the expansion of NK cells. As such, it was hypothesized that inhibiting STAT SUMOylation may enhance the expansion of NK cells. This has important implications for adoptive cell immunotherapies as NK cells are increasingly becoming an attractive alternative to T cell therapies. In order to address whether inhibiting STAT SUMOylation may enhance NK proliferation in vitro, NK cells were isolated from two human HIV-negative donors and expanded using Miltenyi Biotec NK MACS Medium in the presence of 500 IU/ml of IL-2 and in the presence or absence of HODHBt.

[5] = system: STAT1, STAT5, Mx1; test: Western blot of primary CD4 T cells (pSTAT1, pSTAT5, Mx1); format: cell-based, human; conditions: increased concentrations
Experimental: as §1

[6] = system: K562; test: NK cell killing of K562 cells, E:T 1:1, 4 hours; format: cell-based, human
Experimental: It was therefore hypothesized that inhibiting STAT SUMOylation may enhance the ability of IL-15 stimulated NK cells to clear the HIV latent reservoir. To test the hypothesis, NK cells were treated with DMSO, IL-15-stimulated, treated with HODHBt or IL-15-stimulated and treated with HODHBt. Cells were then tested in their ability to kill the erythroleukemia cell line K562, which lack MHC-I. In an experiment, the NK cells from two donors were co-cultured with K562 at an E:T ratio of 1:1 for 4 hours (FIG. 19A). NK cells were pretreated with IL-15, HODHBt, or a combination of both.

[7] = system: STAT5, STAT1, STAT3; test: Western blot of phosphorylated STATs in CD8 T cells; format: cell-based, human
Experimental: as §2, §1

[8] = system: STAT5 transcriptional activity; test: Primary cell screening assay (CD69 expression, STAT5 transcriptional activity); format: cell-based; conditions: primary human CD4 T cells
Experimental: It was observed that the ability of different benzotriazole and benzotriazin derivatives to increase STAT5 phosphorylation correlated with the ability of the compounds to induce the expression of CD69 (a STAT5 target gene) (FIG. 2A) but not CD25 (FIG. 2B) in the surface of human CD4 T cells. Based on these findings, a primary cell screening assay was set up according to FIG. 2C to identify derivatives with similar activity. As an example, flow cytometry was performed to isolated activated cells (FIG. 2D), which were expanded in the presence of DMSO or a compound of interest (FIG. 2E), and screened for changes in the expression of CD69 (FIG. 2F).

O=c1c2ccccc2nnn1O [HODHBt]
phosphorylation levels of STATs [1]: increased phosphorylation levels of all the other STATs | phosphorylation and transcriptional activity of STAT5 [2]: enhance phosphorylation and the transcriptional activity of STAT5 | expansion of CD8 T cells [3]: increased expansion; also recorded: enhanced the expansion of polyclonally activated CD8 T in 5 human donors | NK cell expansion [4]: enhanced NK cell expansion in vitro | levels of myxovirus resistance 1 (Mx1) [5]: increased the levels | levels of phosphorylated STAT1 and STAT5 [5]: increased the levels of phosphorylated STAT1 and STAT5 | killing of K562 by NK cells expanded with compound ([6]; NK cells expanded with IL-2 and HODHBt): retained the ability to kill the target cell line K562 | killing of K562 by pretreated NK cells ([6]; NK cells pretreated with combination of IL-15 and HODHBt, E:T 1:1, 4 hours): drastic increase in the cytolytic capacity of NK cells | phosphorylation of STAT1 and STAT3 in CD8 T cells ([7]; HODHBt alone): increased the phosphorylation levels of both STAT1 and STAT3 | phosphorylation of STAT5 in CD8 T cells ([7]; after IL-2 treatment): increased the levels of phosphorylation of STAT5 after IL-2 treatment | phosphorylation of STAT1 and STAT3 in CD8 T cells ([7]; with IL-2, vs IL-2): enhanced those induced by IL-2 | STAT5 transcriptional activity relative to HODHBt [8]: the compound with the strongest activity | EC50 ([8]; read-out: EC50 in the primary cell screening method): ~63 µM
